Test results taken from PMC3310271 (Journal of agricultural and food chemistry, 2011).
Where two headings read alike, the source gives them in different places.

Legend:
[1] = test system: colon cancer cells (HCT116); settings: HCT116, among phenolic acids formed in TIM-2; cited from earlier work
[2] = first 4 h; cited from earlier work
[3] = TIM-1 gastrointestinal model bioaccessibility of maqui berry anthocyanins; format: in vitro ADME; settings: for Total Bioaccessible Anthocyanin Amount: maqui berry extract in TIM-1, jejunal + ileal absorption over 4 h
diabetic C57b1/6J mice = settings: gavage; cited from earlier work
[4] = maqui berry extract in TIM-1, over 4 h

O=C(O)Cc1ccc(O)c(O)c1 [3,4-dihydroxyphenylacetic acid]
Antiproliferative activity [1]: antiproliferative activity

OC[C@H]1O[C@@H](Oc2cc3c(O)cc(O)cc3[o+]c2-c2ccc(O)c(O)c2)[C@H](O)[C@@H](O)[C@@H]1O [Cyanidin-3-glucoside]
Recovery in ileostomy patients [2]: 1.5%
Total Bioaccessibility as % of intake [3]: 4.28 +/− 0.67 % of intake

OC[C@H]1O[C@@H](Oc2cc3c(O[C@@H]4O[C@H](CO)[C@@H](O)[C@H](O)[C@H]4O)cc(O)cc3[o+]c2-c2cc(O)c(O)c(O)c2)[C@H](O)[C@@H](O)[C@@H]1O [Delphinidin-3,5-diglucoside]
Total Bioaccessible Anthocyanin Amount [3]: 1.17 ± 0.57 mg
Recovery in Ileal Efflux as a % of Intake [3, 4]: 0.77 +/− 0.77 % of intake
Total Bioaccessibility as % of intake [3, 4]: 3.61 +/− 1.74 % of intake
Total Bioaccessibility as % of intake ([3]; maqui berry extract in TIM-1, over 4 h, listed as delphinidin-3,5-diglucoside): 3.6 % of intake

OC[C@H]1O[C@@H](Oc2cc3c(O)cc(O)cc3[o+]c2-c2cc(O)c(O)c(O)c2)[C@H](O)[C@@H](O)[C@@H]1O [Delphinidin-3-glucoside]
Total Bioaccessible Anthocyanin Amount [3]: 3.02 ± 1.83 mg
Recovery in Ileal Efflux as a % of Intake [3, 4]: 0.87 +/− 0.78 % of intake
Total Bioaccessibility as % of intake [3, 4]: 3.15 +/− 1.91 % of intake

OC[C@H]1O[C@@H](Oc2cc(O)cc3[o+]c(-c4cc(O)c(O)c(O)c4)c(O[C@@H]4O[C@H](CO)[C@@H](O)[C@H](O)[C@H]4O[C@@H]4OC[C@@H](O)[C@H](O)[C@H]4O)cc23)[C@H](O)[C@@H](O)[C@@H]1O [Delphinidin-3-sambubioside-5-glucoside]
Recovery in Ileal Efflux as a % of Intake [3, 4]: 0.32+/− 0.32 % of intake

OC[C@H]1O[C@@H](Oc2cc3c(O)cc(O)cc3[o+]c2-c2cc(O)c(O)c(O)c2)[C@H](O[C@@H]2OC[C@@H](O)[C@H](O)[C@H]2O)[C@@H](O)[C@@H]1O [Delphinidin-3-sambubioside]
Total Bioaccessibility as % of intake [3]: 1.23 +/− 0.49 % of intake
Recovery in Ileal Efflux as a % of Intake [3, 4]: 0.26 +/− 0.24 % of intake

COc1cc(-c2[o+]c3cc(O)cc(O)c3cc2O[C@@H]2O[C@H](CO)[C@@H](O)[C@H](O)[C@H]2O)cc(OC)c1O [malvidin-3-O-glucoside]
Effect on blood glucose levels (diabetic C57b1/6J mice): significantly hypoglycemic

Cyanidin-3-sambubioside-5-glucoside + cyanidin3,5-diglucoside
Total Bioaccessibility as % of intake [3]: 17.84 +/− 2.61 % of intake
